From patent US20150133516A1, “Methods and Compositions for Treating ADHD” (priority 2013, published 2015)

What was measured:
α2 adrenergic receptors = assay: alpha 2/alpha1 functional selectivity (in vitro functional potencies); type: biochemical
Experimental: (§1) The pharmacological activity and selectivity of these compounds can be determined using published test procedures. […] (See, e.g., The Alpha-2 Adrenergic Receptors, L. E. Limbird, ed., Humana Press, Clifton, N.J.) The following in vivo assays are typically conducted in rodents or other species. Central nervous system activity is determined by measuring locomotor activity as an index of sedation. (See, e.g., Spyraki, C. & H. Fibiger, “Clonidine-induced Sedation in Rats: Evidence for Mediation by Postsynaptic Alpha-2 Adrenoreceptors”, Journal of Neural Transmission, Vol. 54 (1982), pp. 153-163). Nasal decongestant activity is measured using rhinomanometry as an estimate of nasal airway resistance. […] Antiglaucoma activity is determined by measuring intraocular pressure. […] Antidiarrheal activity is determined by measuring the ability of the compounds to inhibit prostaglandin-induced diarrhea. […] Efficacy in treating irritable bowel syndrome is determined by measuring the ability of compounds to reduce the stress-induced increase in fecal output. […] Antiasthma activity is determined by measuring the effect of the compound on bronchoconstriction associated with pulmonary challenges such as inhaled antigens. […] Activity in cough is determined by measuring the number and latency of the cough response to respiratory challenges such as inhaled citric acid. […]

clinical = conditions: human, in vivo
α2 receptors = assay: receptor binding affinities / selectivity against other molecular targets
Experimental: as §1

[1] = tested on: spontaneously hypertensive rats (SHR); assay: delayed gratification response paradigm in SHR animal model of ADHD; type: in vivo, rat; conditions: 5, 10, 25 or 50 mg/kg over twenty-one days
Text: In this study, spontaneously hypertensive rats (SHR) are used as an animal model for ADHD. The SHR animal model is described in Russell et al., 2000, Behavioral Brain Research, 117: 69-74; Russell, 2001, Metab. Brain Dis., 16: 143-149; and Sagvolden et al., 1992, Behav. Neural Biol., 58: 103-112. The study consists of two groups of rats: normal and SHR. Each group is further divided into two subgroups: placebo and AR08. The AR08 subgroup is further divided into four subgroups and each subgroup is administered 5, 10, 25, or 50 mg/kg of AR08. The AR08 is administered to the rats over a period of twenty-one days. The rats are from the normal and SHR groups are trained in the delayed gratification response paradigm as described in Charrier et al., 1996, Pharmacology and Biochemistry and Behavior, 54: 149-157. In this paradigm, rats learn to choose between five food pellets delivered after 30 seconds and one food pellet delivered after 5 seconds. Normal rats learn to choose the five food pellets delivered after 30 seconds at a higher frequency.

SMILES	alpha 2/alpha1 functional selectivity (α2 adrenergic receptors)	half-life (clinical) [h]	binding to targets other than α2 receptors (α2 receptors)	selectivity for the α2 adrenergic receptors (α2 receptors; versus a wide range of other molecular targets)	amount of time required by SHR rats to choose five food pellets delivered after 30 seconds at a higher frequency [1]
Cc1c(N=C2NCCN2)cc(C#N)c2[nH]cnc12 [Compound I, N-(4,5-Dihydro-1H-imidazol-2-yl)-7-cyano-4-methyl-1H-benzimidazol-5-amine]	about 70 fold	26 to 40	no relevant binding	highly selective	–
Cc1c(N=C2NCCN2)cc(C#N)c2[nH]cnc12 [AR08, N-(4,5-Dihydro-1H-imidazol-2-yl)-7-cyano-4-methyl-1H-benzimidazol-5-amine acetate]	–	–	–	–	reduced
